SMILES strings stand for the structures.

For one experiment, the system named is T1, HIPK1.
T1 construct: human HIPK1 (residues 154–554, UniProt Q86Z02); made in house; host or cells: Sf9 insect cells
The experiment can be described thus: radioactive in vitro kinase assay, HIPK1. The following applies: 0, 0.1, 1, 10, 100 μM compound, 0.2 μM kinase, 0.2 mM ATP. Type of experiment: biochemical, human. As to the method:
(§1) Radioactive kinase activity assays were performed in a total volume of 15 μl per sample in kinase assay buffer (50 mM Hepes/pH 7.6, 34 mM KCl, 7 mM MgCl2, 5 mM β-glycerol phosphate, and 2.5 mM dithioerythritol). Preincubation of 0.2 μM or 0.02 μM recombinant protein kinase with indicated concentrations of respective inhibitor and 0.2 to 2 mM ATP containing 0.45 mCi [^32P]-γ-ATP/ml (PerkinElmer) was carried out for 5 min. Kinase reactions were started by addition of substrate protein (10 μM GST-Rb1 for Cdk4/CycD3, 10 μM GST-CTD[52] for Cdk7/CycH/MAT1, 50 μM His-c-Myc for all others) and incubated for 20 min at 30 °C in a shaking incubator at 300 rpm. For pS7-CTD[3] peptide, the substrate concentration was increased to 100 μM and assays were performed for 60 min. Reactions were terminated by the addition of EDTA to a final concentration of 50 mM. […] Radioactive counts were determined in a Beckman Liquid Scintillation Counter (Beckman Coulter) for 1 min. […] IC50 values were extracted from triplicate measurements by sigmoidal curve fitting using DataGraph (v. 5.0; https://www.visualdatatools.com/DataGraph/) or were determined by applying the Morrison quadratic equation for tight binding inhibitors using GraphPad Prism 10 (https://www.graphpad.com/) ([40]).

Another experiment addresses T2, Cdk9/CycT1 (Homo sapiens, UniProt P50750).
T2 construct: Full-length, human, WT Cdk9 (residues 1–372, UniProt P50750); made in house; host or cells: Cdk9: Sf9 insect cells; CycT1: E. coli
Nature of the experiment: radioactive in vitro kinase assay, Cdk9/CycT1. The following applies: 0, 0.1, 1, 10, 100 μM compound, 0.2 μM kinase, 0.2 mM ATP. Type of experiment: biochemical. As to the method:
as §1

For another experiment, the target named is T3, Cdk13/CycK (Homo sapiens, UniProt Q14004).
T3 construct: The kinase domain of human Cdk13 (residues 694–1039, UniProt Q14004); made in house; host or cells: Sf9 insect cells, co-expressed with CAK1
T3 sequence (Q14004 694-1039): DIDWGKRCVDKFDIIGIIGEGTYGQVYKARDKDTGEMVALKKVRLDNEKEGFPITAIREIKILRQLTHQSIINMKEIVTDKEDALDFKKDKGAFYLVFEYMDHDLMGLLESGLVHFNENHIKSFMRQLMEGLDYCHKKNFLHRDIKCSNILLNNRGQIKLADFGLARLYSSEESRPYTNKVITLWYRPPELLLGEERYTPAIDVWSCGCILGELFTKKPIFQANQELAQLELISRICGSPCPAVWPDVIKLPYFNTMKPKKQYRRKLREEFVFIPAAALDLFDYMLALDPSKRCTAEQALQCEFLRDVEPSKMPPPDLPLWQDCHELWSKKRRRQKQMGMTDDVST
T3 sequence (O75909 1-267 partner limits assumed): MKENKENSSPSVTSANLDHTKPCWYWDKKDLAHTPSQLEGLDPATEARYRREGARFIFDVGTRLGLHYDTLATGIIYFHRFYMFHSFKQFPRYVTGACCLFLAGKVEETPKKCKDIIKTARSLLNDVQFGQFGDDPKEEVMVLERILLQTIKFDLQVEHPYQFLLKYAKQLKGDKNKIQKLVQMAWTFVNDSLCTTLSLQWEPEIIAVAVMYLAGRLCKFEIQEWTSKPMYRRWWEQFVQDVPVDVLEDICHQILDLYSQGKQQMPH
Nature of the experiment: nanoDSF thermal protein stability, Cdk13/CycK. Type of experiment: binding. Particulars: 5 μM protein. As to the method:
(§2) At 10 μM concentration, the thermal shift observed was +4.7 °C, while at 100 μM the thermal stability was increased by +6.2 °C (Table S2) compared to a DMSO control. Together, the results obtained from both SPR and nanoDSF measurements align well with the IC50 values determined for Cdk12∗/CycK and Cdk13∗/CycK kinases.
(§3) For identification of thermal protein stability, nanoDSF experiments were conducted using a Prometheus NT.48 (NanoTemper) instrument. […] at the wavelengths λ = 330 and 350 nm were monitored at an excitation power of 25% in a temperature range from 20 to 90 °C with a slope of 1.5 °C/min. The measurement was conducted and evaluated with the PR.ThermControl software (https://nanotempertech.com/prometheus/nt48-software/). Experiments were conducted in duplicates.
On the technique in general: Differential scanning fluorimetry follows unfolding on heating by fluorescence.

For the next experiment, the target named is T4, Cdk12/CycK (Homo sapiens, UniProt Q9NYV4).
T4 construct: GST (TEV site) (N, cleaved yes); made in house; host or cells: Sf9 insect cells, co-expressed with S. cerevisiae CAK1
T4 sequence (Q9NYV4 714-1063): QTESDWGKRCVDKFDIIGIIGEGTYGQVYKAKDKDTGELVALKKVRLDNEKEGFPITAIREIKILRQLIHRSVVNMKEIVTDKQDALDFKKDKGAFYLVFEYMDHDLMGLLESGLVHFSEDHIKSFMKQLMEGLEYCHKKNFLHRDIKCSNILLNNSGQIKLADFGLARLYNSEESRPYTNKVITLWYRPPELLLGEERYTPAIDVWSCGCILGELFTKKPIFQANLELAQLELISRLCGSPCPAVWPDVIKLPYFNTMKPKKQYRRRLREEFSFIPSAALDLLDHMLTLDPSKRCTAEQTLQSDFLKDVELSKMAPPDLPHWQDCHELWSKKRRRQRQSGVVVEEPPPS
T4 sequence (O75909 1-267 partner limits assumed): as the sequence (O75909 1-267 partner limits assumed) above
The experiment can be described thus: nanoDSF thermal protein stability, Cdk12/CycK. It is filed as binding. Particulars: 5 μM protein. As to the method:
as §2, §3

Another experiment concerns T5, HIPK3.
T5 construct: human HIPK3 (residues 159–562, UniProt Q9H422); made in house; host or cells: Sf9 insect cells
Nature of the experiment: radioactive in vitro kinase assay, HIPK3. It is filed as biochemical, human. Particulars: 0, 0.1, 1, 10, 100 μM compound, 0.2 μM kinase, 0.2 mM ATP. As to the method: as §1

A further experiment has as its target T6, Cdk10/CycQ (Homo sapiens, UniProt Q15131).
T6 construct: Full-length, human, WT Cdk10 (residues 1–360, UniProt Q15131); made in house; host or cells: Sf9 insect cells
Nature of the experiment: radioactive in vitro kinase assay, Cdk10/CycQ. Type of experiment: biochemical. Particulars: 0.2 mM ATP. As to the method:
as §1

Another experiment has as its system T7, DYRK1A.
T7 construct: The kinase domain of human DYRK1A (residues 126–485, UniProt Q13627); made in house; host or cells: E. coli BL21 pLysS
The experiment can be described thus: radioactive in vitro kinase assay, DYRK1A. Type of experiment: biochemical, human. Particulars: 0, 0.1, 1, 10, 100 μM compound, 0.2 μM kinase, 0.2 mM ATP. As to the method:
as §1

T6 sequence (Q15131 whole entry, the tested form may be a part): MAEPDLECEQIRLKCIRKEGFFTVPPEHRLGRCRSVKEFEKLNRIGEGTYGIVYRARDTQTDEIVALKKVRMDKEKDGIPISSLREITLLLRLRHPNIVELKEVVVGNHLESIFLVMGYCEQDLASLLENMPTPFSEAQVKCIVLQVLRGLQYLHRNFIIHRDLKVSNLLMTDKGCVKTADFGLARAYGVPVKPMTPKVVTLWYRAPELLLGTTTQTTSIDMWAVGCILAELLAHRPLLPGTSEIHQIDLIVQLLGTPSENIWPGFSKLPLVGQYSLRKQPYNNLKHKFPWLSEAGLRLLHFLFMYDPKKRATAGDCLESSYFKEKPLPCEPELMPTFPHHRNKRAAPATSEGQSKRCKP
T6 sequence (Q8N1B3 whole entry partner, the tested form may be a part): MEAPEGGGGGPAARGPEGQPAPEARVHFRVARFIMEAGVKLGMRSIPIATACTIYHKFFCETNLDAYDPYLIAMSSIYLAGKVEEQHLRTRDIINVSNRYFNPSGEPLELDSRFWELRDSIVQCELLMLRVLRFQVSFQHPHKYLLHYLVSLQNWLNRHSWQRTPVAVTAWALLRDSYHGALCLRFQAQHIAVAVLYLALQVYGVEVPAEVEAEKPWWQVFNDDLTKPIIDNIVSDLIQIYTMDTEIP
T2 sequence (P50750 whole entry, the tested form may be a part): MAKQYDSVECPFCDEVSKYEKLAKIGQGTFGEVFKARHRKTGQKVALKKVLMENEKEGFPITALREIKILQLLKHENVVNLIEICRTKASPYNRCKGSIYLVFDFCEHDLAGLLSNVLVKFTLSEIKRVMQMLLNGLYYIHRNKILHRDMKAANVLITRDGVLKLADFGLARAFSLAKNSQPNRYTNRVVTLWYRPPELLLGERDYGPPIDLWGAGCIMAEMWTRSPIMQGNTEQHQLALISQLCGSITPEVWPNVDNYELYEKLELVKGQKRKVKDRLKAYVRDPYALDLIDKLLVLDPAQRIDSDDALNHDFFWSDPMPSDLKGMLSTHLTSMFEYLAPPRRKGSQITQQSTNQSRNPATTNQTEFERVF
T2 sequence (O60563 1-272 partner limits assumed): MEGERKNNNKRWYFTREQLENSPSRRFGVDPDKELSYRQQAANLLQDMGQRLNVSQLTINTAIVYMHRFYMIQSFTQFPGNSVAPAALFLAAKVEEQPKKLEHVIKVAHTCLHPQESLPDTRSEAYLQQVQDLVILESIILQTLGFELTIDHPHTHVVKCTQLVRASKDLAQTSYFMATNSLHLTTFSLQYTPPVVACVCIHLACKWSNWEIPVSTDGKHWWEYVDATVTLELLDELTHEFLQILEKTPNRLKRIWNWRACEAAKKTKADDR

In general, IC50 refers to the concentration that inhibits the measured activity by half. With `Cn1cc(-n2cnc3c(NCc4nc5cc(Cl)c(Cl)cc5[nH]4)nc(N4CCOCC4)nc32)cn1` [SR-4835], in the experiment with HIPK1, the “inhibition of HIPK1 activity” value was “not inhibited”. On Cdk9/CycT1, the “inhibition of Cdk9 activity” value was “no inhibitory activity”. Further, the “Tm, Cdk13/CycK” value on Cdk13/CycK (1 μM compound) turned out to be 54.40 °C; at Cdk13/CycK (10 μM compound), 58.80 °C; at Cdk13/CycK (100 μM compound), 60.30 °C. Further, the “∆Tm to DMSO control, Cdk13/CycK” value on Cdk13/CycK (1 μM compound) was “+0.25 °C”. The results for the “Tm, Cdk12/CycK” value on Cdk12/CycK (1 μM compound), on Cdk12/CycK (10 μM compound) and on Cdk12/CycK (100 μM compound) were 51.45 °C, 58.70 °C and 60.45 °C, respectively. Also, the “∆Tm to DMSO control, Cdk12/CycK” value on Cdk12/CycK (1 μM compound) is “+0.80 °C”. Further, in the experiment on HIPK3, the “inhibition of HIPK3 activity” value is on record as “not inhibited”. The “inhibition of Cdk10/CycQ activity” value at Cdk10/CycQ (0, 0.1, 1, 10, 100 μM compound, 0.2 μM kinase) is listed as “moderate SR-4835 concentration dependent decrease”. In addition, at Cdk10/CycQ (concentration range 1 nM to 1 mM, sigmoidal fit), the IC50 was found to be 1070 nM. For the same molecule, in the experiment with DYRK1A, the “inhibition of DYRK1A activity” value was “not inhibited”.

For the origin of these results see paper PMC10767194 (The Journal of Biological Chemistry, 2023).
